The values below come from patent US9926315B2, “Triazolopyridine compounds and methods for the treatment of cystic fibrosis” (Flatley Discovery Lab, LLC, priority 2014, dated 2018).

In this assay the target is T1, human ΔF508-CFTR (Homo sapiens, UniProt P13569, DEL508-508).
T1 construct: expressed in transfected cells
Nature of the assay: CFTR-YFP High Throughput Assay (HTS YFP flux assay, corrector / potentiator protocols). The format is cell-based. The settings on record: FRT cells stably expressing human ΔF508-CFTR and YFP-H148Q/I152L; for Emax: normalized to positive control, read-out: Emax (% Efficacy, EMax normalized to the positive control). The protocol: Assays for Detecting and Measuring the Effect of Compounds on dF508-CFTR Channels CFRT-YFP High Throughput Assay: Corrector Assay:
The following protocol is designed to selectively screen small molecule compounds for F508del CFTR corrector activities in the HTS YFP flux assay. In this protocol, the cells are incubated with testing compounds for 24 hours, washed with PBS, stimulated with forskolin and a standard potentiator, and read on a 384-well HTS plate reader, such as the Hamamatsu FDDD-6000.
YFP fluorescence intensity is acquired at high speed before and after iodide buffer is injected to the assay cells. Iodide enters the cells via active CFTR channels in the plasma membrane, and quenches the YFP fluorescence. The rate of fluorescence quenching is proportionally related to the total CFTR activities in the cell membrane. dF508-CFTR corrector accelerates YFP quenching by increasing the number of CFTR molecules in the testing cell plasma membrane.
This method was initially developed for bench top plate readers (Galietta, 2001), and was adapted to the HTS format (Sui, 2010).
Fisher Rat Thyroid (FRT) cells stably expressing both human ΔF508-CFTR and a halide-sensitive yellow fluorescent protein (YFP-H148Q/I152L 25, 22) (Galietta, 2001) were cultured on plastic surface in Coon's modified Ham's F12 medium supplemented with FBS 10%, L-glutamine 2 mM, penicillin 100 U/mL, and streptomycin 100 μg/mL. G418 (0.75-1.0 mg/mL) and zeocin (3.2 μg/mL) were used for selection of FRT cells expressing ΔF508-CFTR and YFP. For primary screening, FRT cells were plated into 384-well black wall, transparent bottom microtiter plates (Costar; Corning Inc.) at a cell density of 20, 000-40, 000 per well. Test compound was applied to the cells at varying concentrations ranging from 2 nM-[…] in either a 2-fold or 3-fold dilution series. Cells were incubated in a cell culture incubator at 37° C. with 5% CO2 for 24-26 h. Assay plates were washed with DPBS media (Thermo, cat#SH30028.02) to remove unbound cells and compound. Stimulation media (25 μL) containing 20 μM Forskolin & 30 μM P3 [6-(Ethyl-phenyl-sulfonyl)-4-oxo-1, 4-dihydro-quinoline-3-carboxylic acid 2-methoxy-benzylamide] in Hams F-12 coon's modified media was added to the plate wells and incubated at room temperature for 60-120 min. 25 μL of HEPES-PBS-I buffer (10 mM HEPES, 1 mM MgCl2, 3 mM KCl, 1 mM CaCl2, 150 mM NaI) was then added and fluorescence quench curves (Excitation 500 nm/Emission 540 nm; exposure 136 ms) were immediately recorded on an FDSS-6000 plate reader (Hamamatsu). Quench rates were derived from least squares fitting of the data (Sui, 2010).
The following protocol is designed to selectively screen small molecule compounds for F508del CFTR potentiator activities in the HTS YFP flux assay. In this protocol, the cells are incubated at 27° C. for 24 hours with homogeneously boosted dF508-CFTR expression in the cell membrane by the low temperature, washed with PBS, stimulated with forskolin, and read on a 384-well HTS plate reader, such as the Hamamatsu […].
YFP fluorescence intensity is acquired at high speed before and after iodide buffer is injected to the assay cells. Iodide enters the cells via active CFTR channels in the plasma membrane, and quenches the YFP fluorescence. The rate of fluorescence quenching is proportionally related to the total CFTR activities in the cell membrane. dF508del-CFTR potentiators accelerate YFP quenching by increasing CFTR activities in the testing cell plasma membrane.
Fisher Rat Thyroid (FRT) cells stably expressing both human ΔF508-CFTR and a halide-sensitive yellow fluorescent protein (YFP-H148Q/I152L 25, 22) (Galietta, 2001) were cultured on plastic surface in Coon's modified Ham's F12 medium supplemented with FBS 10%, L-glutamine 2 mM, penicillin 100 U/mL, and streptomycin 100 μg/mL. G418 (0.75-1.0 mg/mL) and zeocin (3.2 μg/mL) were used for selection of FRT cells expressing ΔF508-CFTR and YFP. […]

T1 sequence (P13569 with tags, fused parts or gaps DEL508-508): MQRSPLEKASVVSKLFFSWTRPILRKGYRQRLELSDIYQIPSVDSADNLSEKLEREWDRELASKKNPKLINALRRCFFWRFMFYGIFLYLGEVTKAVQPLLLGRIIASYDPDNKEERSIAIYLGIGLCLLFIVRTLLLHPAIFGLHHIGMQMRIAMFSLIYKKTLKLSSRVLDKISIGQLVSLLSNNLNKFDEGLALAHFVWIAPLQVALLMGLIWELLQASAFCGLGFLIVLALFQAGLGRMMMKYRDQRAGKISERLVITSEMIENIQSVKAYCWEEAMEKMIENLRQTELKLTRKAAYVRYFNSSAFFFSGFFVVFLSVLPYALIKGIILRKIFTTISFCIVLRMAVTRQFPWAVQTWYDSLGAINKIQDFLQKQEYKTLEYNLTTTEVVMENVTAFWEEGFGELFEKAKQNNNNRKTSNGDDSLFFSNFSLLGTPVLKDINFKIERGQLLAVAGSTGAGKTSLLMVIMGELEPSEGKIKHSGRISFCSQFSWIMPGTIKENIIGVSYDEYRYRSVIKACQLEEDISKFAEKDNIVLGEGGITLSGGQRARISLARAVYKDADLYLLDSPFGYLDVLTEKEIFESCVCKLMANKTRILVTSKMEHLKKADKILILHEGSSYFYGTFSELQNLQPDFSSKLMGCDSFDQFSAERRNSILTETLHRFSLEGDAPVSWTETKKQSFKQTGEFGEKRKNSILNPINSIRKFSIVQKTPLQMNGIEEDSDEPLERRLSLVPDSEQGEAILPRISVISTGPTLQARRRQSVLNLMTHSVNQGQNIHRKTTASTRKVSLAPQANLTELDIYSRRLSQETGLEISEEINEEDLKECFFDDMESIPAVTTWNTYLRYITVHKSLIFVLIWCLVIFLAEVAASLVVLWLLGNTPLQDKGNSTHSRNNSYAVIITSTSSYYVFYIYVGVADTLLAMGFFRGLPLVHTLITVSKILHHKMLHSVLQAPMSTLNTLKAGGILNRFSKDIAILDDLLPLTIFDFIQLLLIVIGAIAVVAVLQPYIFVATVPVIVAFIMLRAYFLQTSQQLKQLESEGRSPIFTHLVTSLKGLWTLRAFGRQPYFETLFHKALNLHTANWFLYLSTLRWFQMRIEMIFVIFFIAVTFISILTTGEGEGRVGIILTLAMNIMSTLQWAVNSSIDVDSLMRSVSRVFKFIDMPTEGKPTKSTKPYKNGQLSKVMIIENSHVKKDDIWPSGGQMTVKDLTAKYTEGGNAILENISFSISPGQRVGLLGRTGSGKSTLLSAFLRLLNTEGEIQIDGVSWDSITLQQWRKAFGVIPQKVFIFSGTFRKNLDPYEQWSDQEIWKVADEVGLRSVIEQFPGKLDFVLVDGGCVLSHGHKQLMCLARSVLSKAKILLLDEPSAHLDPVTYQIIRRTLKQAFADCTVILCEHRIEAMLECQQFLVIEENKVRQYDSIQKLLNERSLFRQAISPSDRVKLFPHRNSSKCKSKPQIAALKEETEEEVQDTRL

One may read the EC50 as the concentration needed to bring the measured effect to its halfway point. For orientation: Emax means the size of the effect at its maximum, as opposed to the concentration needed. On to `CCN(CC)S(=O)(=O)c1ccc2nnc(N[C@H](C)C3CCCCC3)n2c1` [Example 34], for which the half-maximal effective concentration (EC50) was less than 1000 nM and the Emax was more than 80%.
Consider `CCN(CC)S(=O)(=O)c1ccc2nnc(NCc3ccc(N(C)C)cc3)n2c1` [Example 37], for which the EC50 was less than 1000 nM and the maximal response (Emax) is more than 80%.
Take `CCN(CC)S(=O)(=O)c1ccc2nnc(NCCC(C)(C)C)n2c1` [Example 45]: the EC50 is less than 1000 nM and the Emax is more than 80%.
On to `CCN(CC)S(=O)(=O)c1ccc2nnc(NCc3cccc(C#N)c3)n2c1` [Example 56], for which the EC50 was less than 1000 nM and the Emax was more than 80%.
With `O=S(=O)(c1ccccc1)c1ccc2nnc(NCCC3CCCCC3)n2c1` [Example 76], the EC50 is 1000 to 10000 nM and the Emax is more than 80%.
In the same order, the values of `CCN(CC)S(=O)(=O)c1ccc2nnc(NCc3ccc4c(c3)CCO4)n2c1` [Example 40] are less than 1000 nM and more than 80%.
As for `O=C(c1ccc(CNc2nc3ccc(S(=O)(=O)c4ccccc4)cn3n2)cc1)N1CCC1` [Example 91], the half-maximal effective concentration (EC50) is less than 1000 nM and the Emax is 40 to 80%.
For `CCN(CC)S(=O)(=O)c1ccc2nnc(N(C)Cc3ccccc3)n2c1` [Example 3] the same measures were less than 1000 nM and 40 to 80%.
Turning to `CCN(CC)S(=O)(=O)c1ccc2nnc(NCc3ccccc3)n2c1` [Example 1, 3-(Benzylamino)-N,N-diethyl-[1,2,4]triazolo[4,3-a]pyridine-6-sulfonamide], the concentration for a half-maximal effect (EC50) is less than 1000 nM and the maximal response (Emax) was more than 80%.
For the molecule `CCN(CC)S(=O)(=O)c1ccc2nnc(N[C@@H](Cc3ccccc3)C(=O)N3CCCCC3)n2c1` [Example 53], the EC50 was less than 1000 nM and the maximum response (Emax) is more than 80%.
As for `CCN(CC)S(=O)(=O)c1ccc2nnc(NCc3cccc(C)c3)n2c1` [Example 10], the half-maximal effective concentration (EC50) was less than 1000 nM and the Emax was more than 80%.
As to `CCN(CC)S(=O)(=O)c1ccc2nnc(NCc3ccc(OC(C)C)cc3)n2c1` [Example 36], the EC50 is less than 1000 nM and the Emax was more than 80%.
In the same order, the values of `O=S(=O)(c1ccccc1)c1ccc2nnc(NC[C@H](O)c3ccccc3)n2c1` [Example 70] are less than 1000 nM and more than 80%.
For `C[C@@H](Nc1nc2ccc(S(=O)(=O)c3ccccc3)cn2n1)c1ccccc1` [Example 81], the concentration for a half-maximal effect (EC50) is less than 1000 nM and the Emax is more than 80%.
For `COc1cccc(S(=O)(=O)c2ccc3nnc(N[C@H](C)c4ccccc4)n3c2)c1` [Example 71] the same measures were 1000 to 10000 nM and more than 80%.
